Experimental findings from US12030903B2, “Antiviral compounds” (Gilead Sciences, Inc., priority 2020, dated 2024) are described below.

The target of data set [1] is T1, DENV2 NS5 (Dengue virus type 2, UniProt P14340).
T1 construct: His tag (pET28b, thrombin-cleavable) (N); made in house; host or cells: E. coli BL21 (DE3)
Briefly: DENV Pol IC50 (DENV2-NS5 polymerase assay). In kind it is biochemical. Particulars: 100 nM DENV2 NS5, sshRNA template, 90 minutes at 30° C.
Method: A 244 nucleotide secondary structureless heteropolymeric RNA (sshRNA) with sequence 5′-(UCAG)20(UCCAAG)14(UCAG)20-3′ (SEQ ID NO: 1) is used as the template with 5′-CUG-3′ primer in the DENV2-NS5 polymerase assay. Six two-fold dilutions of compounds starting from 200 nM and no inhibitor control are plated in 96-well plates. 100 nM DENV2 NS5 is preincubated for 5 minutes at room temperature in a reaction mixture containing 40 mM Tris-HCl (pH 7.5), 10 mM NaCl, 3 mM DTT, 0.2 unit/μL RNasin Plus RNase Inhibitor, 200 ng/μL sshRNA, 20 μM CUG and 2 mM MgCl2. Enzyme mix is added to compound dilutions and reactions initiated by the addition of a mixture containing 20 μM of three natural NTP plus 2 μM of analog:base matched competing natural NTP containing 1:100 α-33P-NTP. After 90 minutes at 30° C., 5 μL of the reaction mixtures are spotted on DE81 anion exchange paper. Filter papers are washed three times with Na2HPO4 (125 mM, pH 9) for 5 minutes, rinsed with water and ethanol, then air-dried and exposed to phosphorimager. Synthesized RNA is quantified using Typhoon Trio Imager and Image Quant TL Software and reaction rates are calculated by linear regression using GraphPad Prism 5.0. IC50 values are calculated in Prism by non-linear regression analysis using the dose-response (variable slope) equation (four-parameter logistic equation): Y=Bottom+(Top-Bottom)/(1+10^((Log IC50−X)*HillSlope)).

The nature of data set [2]: HEp-2 CC50 (cytotoxicity in uninfected HEp-2 cells). In kind it is cell-based. Particulars: human, CellTiter Glo. On the procedure:
Instead, an uninfected cell mixture at the same density is added at 20 uL/well to plates containing prediluted compounds, also at 100 nL/sample. Assay plates are then incubated for 4 days followed by a cell viability test using the same CellTiter Glo reagent addition and measurement of luminescent readouts. Untreated cell and cells treated at 2 μM puromycin (Sigma, St. Louis, MO) serve as 100% and 0% cell viability control, respectively.

Data set [3] can be described thus: moDC CC50 (CellTiter Glo viability). Particulars: human, uninfected moDCs. It counts as cell-based, Human.
The nature of data set [4]: Huh-7 CC50 (CellTiter Glo viability). In kind it is cell-based, Human. Particulars: human, Huh7 hepatocarcinoma cells. In a few lines: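 Huh7 cells in 10% FCS DMEM plated at 1-2×10^4 per well in triplicate with graded compound doses, 0.25% DMSO throughout. Viability after 48 hours by CellTiter Glo luminescence, normalized to no-compound and no-cell controls; CC50 from curve fitting.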
On the technique in general: Cellular ATP, detected with luciferase, serves as a proxy for viable cell number.

In data set [5] the test system is Dengue serotype 2 New Guinea C (NGC) strain. The data set can be described thus: DENV-2 Huh-7 EC50 (qPCR of viral RNA in infected Huh7 cells). In kind it is cell-based. Particulars: Dengue virus, DENV2, Huh-7, Huh7 cells infected with Dengue serotype 2 NGC, MOI=0.1, 48 hours. In a few lines:
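Huh7 cells were infected 2 h at 37 °C with DENV-2 NGC at MOI 0.1, then plated with graded compound doses (0.25% DMSO) in triplicate for 48 h. Viral RNA was quantified by duplex TaqMan qPCR against GAPDH. EC50 was normalized to positive and no-compound controls.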

The subject of data set [6] is Dengue 2, New Guinea strain (NGC). Briefly: DENV-2 moDC EC50 (qPCR of viral RNA in infected moDCs). Particulars: Dengue virus, human moDCs infected with Dengue 2 NGC, MOI=0.1, 48 hours. It counts as cell-based, New Guinea strain (NGC); human moDCs. In short, it runs like this: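 moDCs differentiated 7 days from CD14+ monocytes with GM-CSF/IL-4, infected with Vero-derived DENV-2 NGC at MOI 0.1 for 2 h at 37 °C, then plated in triplicate with graded compound doses (0.25% DMSO). At 48 h viral RNA quantified by duplex TaqMan qPCR against GAPDH; EC50 normalized to positive and no-compound controls.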
In general terms: Real-time PCR tracks product formation cycle by cycle.

Data set [7] has as its system RSV strain A2. Briefly: RSV HEp-2 EC50 (infectious cytopathic cell protection assay). In kind it is cell-based, RSV strain A2; HEp-2 cells. Particulars: human respiratory syncytial virus, HEp-2, 96 h, read-out: RSV Hep-2 EC50. In short, it runs like this: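 HEp-2 cells (50,000/mL) infected with titered RSV stock, added onto compound in 3-fold serial dilutions; 4 days at 37 °C. Cell viability read by CellTiter-Glo luminescence; percent inhibition of virus-induced cytopathic effect derived from remaining viability against 0% and 100% inhibition controls.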
On the technique in general: Cytopathic effects are the visible damage that an infection or toxin causes in cultured cells.

Data set [8] relates to RSV A2. The data set can be described thus: RSV NHBE EC50 (RSV A2 antiviral assay in NHBE cells). In kind it is cell-based, RSV A2; normal human bronchial epithelial (NHBE) cells. Particulars: human respiratory syncytial virus, 96 h; NHBE cells infected with RSV A2, 4 days, Cell-Titer Glo. As to the method: Example 88. RSV NHBE EC50
Normal human bronchial epithelial (NHBE) cells were purchased from Lonza (Walkersville, MD, Cat #CC-2540) and cultured in Bronchial Epithelial Growth Media (BEGM) (Lonza, Walkersville, MID, Cat 9 CC-3170). The cells were passaged 1-2 times per week to maintain<80% confluency. The NHBE cells were discarded after 6 passages in culture.
To conduct the RSV A2 antiviral assay, NHBE cells were plated in 96-well plates at a density of 7,500 cells per well in BEGM and allowed to attach overnight at 37° C. Following attachment, 100 μL of cell culture media was removed and 3-fold serially diluted compound was added using a Hewlett-Packard D300 Digital Dispenser. The final concentration of DMSO was normalized to 0.05%. Following compound addition, the NHBE cells were infected by the addition of 100 μL of RSV A2 at a titer of […] tissue culture infectious doses/mL in BEGM and then incubated at 37° C. for 4 days. The NHBE cells were then allowed to equilibrate to 25° C. and cell viability was determined by removing 100 μL of culture medium and adding 100 μL of Cell-Titer Glo viability reagent. The mixtures were incubated for 10 minutes at 25° C., and the luminescence signal was quantified on an Envision luminescence plate reader.

Consider `Nc1ncnn2c([C@@H]3O[C@](CCl)(COP(=O)(O)OP(=O)(O)OP(=O)(O)O)[C@@H](O)[C@H]3O)ccc12` [Comp. Ex. 2, ((2R,3S,4R,5S)-5-(4-aminopyrrolo[2,1-f][1,2,4]triazin-7-yl)-2-(chloromethyl)-3,4-dihydroxytetrahydrofuran-2-yl)methyl tetrahydrogen triphosphate, reference compound], for which the IC50 – broadly, the point on the concentration scale where inhibition reaches its midpoint – in data set [1] amounted to 7090 nM.

Molecule `Nc1ncnn2c([C@@H]3O[C@](CF)(COP(=O)(O)OP(=O)(O)OP(=O)(O)O)[C@@H](O)[C@H]3O)ccc12` [Example 2, sodium ((2R,3S,4R,5S)-5-(4-aminopyrrolo[2,1-f][1,2,4]triazin-7-yl)-2-(fluoromethyl)-3,4-dihydroxytetrahydrofuran-2-yl)methyl triphosphate] registered a half-inhibitory concentration (IC50) in data set [1] of 737 nM.

In the case of `COC(=O)[C@H](C)NP(=O)(OC[C@@]1(CF)O[C@@H](c2ccc3c(N)ncnn23)[C@H](O)[C@@H]1O)Oc1ccccc1` (stereo partly drawn) [Example 10, methyl ((((2R,3S,4R,5S)-5-(4-aminopyrrolo[2,1-f][1,2,4]triazin-7-yl)-2-(fluoromethyl)-3,4-dihydroxytetrahydrofuran-2-yl)methoxy)(phenoxy)phosphoryl)-L-alaninate], the CC50 (usually the concentration that lowers cell viability or growth by half) at 4 days in data set [2] was more than 50000 nM. Also, the CC50 at 48 h in data set [3] was more than 19500 nM; in data set [4], more than 25000 nM. The EC50 (usually the concentration at which the effect is half-maximal) in data set [5] was determined as 843 nM; in data set [6] it was 679 nM; in data set [7], 909 nM; in data set [8], 2110 nM.
